Reference: US20230172969A1, “Ophthalmic Composition” (Rohto Pharmaceutical Co., Ltd., priority 2020, published 2023)

System: Japanese white rabbits
Experiment: Dryness stress test using rabbits (methylene blue staining of corneas)
Type: in vivo, rabbit
Conditions: eyelids open 3 hours, 100 μL per eye, 0.5% w/v or 3% w/v in physiological saline, compared with sodium chondroitin sulfate around 20,000, p<0.01
Experimental: Sodium chondroitin sulfate having a weight average molecular weight of around 20,000 (Maruha Nichiro Corporation; sodium chondroitin sulfate in Japanese Pharmaceutical Codex) or sodium chondroitin sulfate having a weight average molecular weight of around 40,000 (SEIKAGAKU CORPORATION; grade N-K) was dissolved in a physiological saline solution (Otsuka Pharmaceutical Factory, Inc.) to 0.5% w/v or 3% w/v separately to prepare test substances.
Rabbits (Japanese white rabbits (KITAYAMA LABES CO., LTD.)) classified into five groups (n=5) according to the method of Nagano et al. (Journal of the Eye, 13(2), 267-270, 1996) were put under general anesthesia, rings obtained by cutting finger portions of gloves into a ring form were then installed on the right and left eyeballs, and the eyelids were opened forcedly. […] The corneas were excised from the eye surfaces, methylene blue dye was then extracted, and the absorbance at 660 nm was measured using the microplate reader Multiskan GO (Thermo Fisher Scientific K.K.). Since a cornea lesion is formed by eye dryness, and the amount of the dye attached to the cornea surfaces increases, it can be estimated that as the absorbance value increases, the eyes become dryer.

sodium chondroitin sulfate
absorbance at 660 nm (methylene blue dye extracted from corneas): remarkably low
